Data published in US20240350447A1, “DELIVERY METHODS FOR TREATING BRAIN AND CENTRAL NERVOUS SYSTEM DISEASES” (JENIVISION INC., priority 2021, published 2024).
Where “and” joins values, the source holds several entries; their conditions need not be identical. Equal entries are not always repeated. Where two headings read alike, the source gives them in different places.

Key:
[1] = DHA distribution after single periorbital skin administration; type: in vivo, Bama minipigs; settings: for concentration at 3 h: Bama, minipig, topical, 6092 μg/eye
Procedure: In this example, 6092 μg/eye of DHA was applied to the periorbital skin of a left eye of a Bama minipig. […] 27133.8 ng/g of tissue and 24795.8 ng/g of tissue of DHA was measured in the left and right halves of the brain, respectively. Taking the average of these two numbers, the amount of DHA present in the brain 3 hours post-dosage was 25964.9 ng/g.
Given that the average Bama pig brain weighs around 60 g, the amount of DHA delivered to the brain can be estimated to be 312,408 ng or 312 μg. Therefore, the percentage of administered dose=312 μg delivered to brain/6092 μg dosed=5.1% of DHA topically administered to the pig via periorbital administration was delivered to the brain. As a comparison, only about 0.025% of DHA that is orally administered is delivered to the brain or CNS.

[2] = Baseline endogenous levels of DHA in monkeys; type: in vivo; settings: no NIODP dosing
Description: The endogenous levels DHA is originated from normal diet and not attributable to NIODP administration.

[3] = Biodistribution of DHA after periorbital skin (NIODP) application to one eye; type: in vivo, Cynomolgus monkeys; settings: for DHA in cornea / DHA in upper eyelid / DHA in vitreous humor / Retina/Upper eyelid ratio of DHA / concentration at 0.5 h / concentration at 3 h / concentration at 6 h / concentration at 24 h / concentration at 0 h / OD/OS retina ratio of DHA: 6755.1 μg to OS via NIODP; for concentration at 0.5 h / concentration at 3 h / concentration at 6 h / concentration at 24 h / concentration at 0 h / Kp: cynomolgus monkey; for OD/OS retina ratio of DHA: undosed/dosed retina
Procedure: An experiment was performed to determine the biodisposition of DHA following topical application to the periorbital skin that surrounds the anterior portion of the globe was performed.
Docosahexaenoic acid (DHA) is an omega-3 fatty acid and an essential component for neuronal formation, function and protection. […] […] High concentrations of DHA (from 35.6 to 97.3 μg/g) were detected in the undoes retina, which is similar to the dosed retina.
Moreover, compared to the baseline retina/plasma ratio of 7-fold, and with no significant changes in plasma, the retina/plasma ratios of DHA in the undosed eye were at least 30-fold at each post dose timepoint, signifying that the undosed retina uptake of DHA was not from blood circulation.

[4] = Baseline endogenous levels of DHA, DHA-EE and JV-DE1; type: in vivo; settings: undosed Bama minipigs
Procedure: Endogenous levels were measured in the plasma, cerebrospinal fluid, ocular tissues (retina, optic nerve, ocular muscles), and brain. The endogenous levels DHA are not attributable to NIODP administration of DHA, DHA-EE, or JV-DE1. The baseline data collected in Table 4 was taken from the same lot of pigs, from the same vendor, as the information collected in Tables 5-7.

[5] = oral administration; comparison value; cited from earlier work
[6] = 3 h, DHA 6092 μg to periorbital skin of left eye
[7] = OD (undosed eye), 0 h (baseline)

Drug Concentration in Plasma ([1]; 0 h, DHA 6092 μg to periorbital skin of left eye): BLQ
Drug Concentration in Plasma ([1]; 1 h, DHA 6092 μg to periorbital skin of left eye): BLQ
Percentage of administered dose delivered to the brain ([1]; 3 h, DHA 6092 μg periorbital, whole brain estimate): 5.1%
% of administered dose: Cerebrospinal fluid [1, 6]: 0%
% of administered dose: brain-left [1, 6]: 6%
% of administered dose: brain-right [1, 6]: 4%
% of administered dose: inferior rectus muscle-left [1, 6]: 0.004%
% of administered dose: inferior rectus muscle-right [1, 6]: 0.01%
% of administered dose: lateral rectus muscle-left [1, 6]: 0.02%
% of administered dose: lateral rectus muscle-right [1, 6]: 0.03%
% of administered dose: medial rectus muscle-left [1, 6]: 0.01%
% of administered dose: medial rectus muscle-right [1, 6]: 0.01%
% of administered dose: optic nerve-left [1, 6]: 0.03%
% of administered dose: optic nerve-right [1, 6]: 0.05%
% of administered dose: retina-left [1, 6]: 0.2%
% of administered dose: retina-right [1, 6]: 0.1%
% of administered dose: superior rectus muscle-left [1, 6]: 0.01%
% of administered dose: superior rectus muscle-right [1, 6]: 0%
Drug Concentration in Plasma [1, 6]: BLQ
concentration at 3 h ([1]; brain (average of left and right halves), 3 h, DHA 6092 μg to periorbital skin of left eye, read-out: Average DHA present in the brain (left and right halves)): 26000 ng/g
concentration at 3 h ([1]; brain, left half, 3 h, DHA 6092 μg to periorbital skin of left eye, read-out: Drug Concentration in Tissue: brain-left): 27100 ng/g
concentration at 3 h ([1]; brain, right half, 3 h, DHA 6092 μg to periorbital skin of left eye, read-out: Drug Concentration in Tissue: brain-right): 24800 ng/g
concentration at 3 h ([1]; cerebrospinal fluid, 3 h, DHA 6092 μg to periorbital skin of left eye, read-out: Drug Concentration in Tissue: Cerebrospinal fluid): 0 ng/g
concentration at 3 h ([1]; inferior rectus muscle, left (dosed side), 3 h, DHA 6092 μg to periorbital skin of left eye, read-out: Drug Concentration in Tissue: inferior rectus muscle-left): 2750 ng/g
concentration at 3 h ([1]; inferior rectus muscle, right (undosed side), 3 h, DHA 6092 μg to periorbital skin of left eye, read-out: Drug Concentration in Tissue: inferior rectus muscle-right): 2340 ng/g
concentration at 3 h ([1]; lateral rectus muscle, right, 3 h, DHA 6092 μg to periorbital skin of left eye, read-out: Drug Concentration in Tissue: lateral rectus muscle-right): 1980 ng/g
concentration at 3 h ([1]; lateral rectus muscle, 3 h, DHA 6092 μg to periorbital skin of left eye, read-out: Drug Concentration in Tissue: lateral rectus muscle-left): 8100 ng/g
concentration at 3 h ([1]; medial rectus muscle, left (dosed side), 3 h, DHA 6092 μg to periorbital skin of left eye, read-out: Drug Concentration in Tissue: medial rectus muscle-left): 2720 ng/g
concentration at 3 h ([1]; medial rectus muscle, right, 3 h, DHA 6092 μg to periorbital skin of left eye, read-out: Drug Concentration in Tissue: medial rectus muscle-right): 1520 ng/g
concentration at 3 h ([1]; optic nerve, left (dosed side), 3 h, DHA 6092 μg to periorbital skin of left eye, read-out: Drug Concentration in Tissue: optic nerve-left): 10400 ng/g
concentration at 3 h ([1]; optic nerve, right (undosed side), 3 h, DHA 6092 μg to periorbital skin of left eye, read-out: Drug Concentration in Tissue: optic nerve-right): 15300 ng/g
concentration at 3 h ([1]; retina, left (dosed side), 3 h, DHA 6092 μg to periorbital skin of left eye, read-out: Drug Concentration in Tissue: retina-left): 61700 ng/g
concentration at 3 h ([1]; retina, right (undosed side), 3 h, DHA 6092 μg to periorbital skin of left eye, read-out: Drug Concentration in Tissue: retina-right): 42100 ng/g
concentration at 3 h ([1]; superior rectus muscle, right, 3 h, DHA 6092 μg to periorbital skin of left eye, read-out: Drug Concentration in Tissue: superior rectus muscle-right): 0 ng/g
concentration at 3 h ([1]; superior rectus muscle, 3 h, DHA 6092 μg to periorbital skin of left eye, read-out: Drug Concentration in Tissue: superior rectus muscle-left): 3050 ng/g
Calculated Concentration, endogenous DHA in cornea ([2]; double blank samples): BLQ
Calculated Concentration, endogenous DHA in plasma ([2]; double blank samples): 0.5 µg/mL and 0.6 µg/mL
Calculated Concentration, endogenous DHA in retina ([2]; double blank samples): 16 µg/g and 17 µg/g
Calculated Concentration, endogenous DHA in upper eyelid ([2]; double blank samples): BLQ
Calculated Concentration, endogenous DHA in vitreous humor ([2]; double blank samples): BLQ
DHA in the undosed right cornea and vitreous humor ([3]; DHA to OS via NIODP): No DHA was detectable
DHA in cornea [3, 7]: BLQ
DHA in upper eyelid [3, 7]: BLQ
DHA in vitreous humor [3, 7]: BLQ
Retina/Upper eyelid ratio of DHA ([3]; OD (undosed eye), 0.5 h): 172%
Retina/Upper eyelid ratio of DHA ([3]; OD (undosed eye), 3 h): 1678%
Retina/Upper eyelid ratio of DHA ([3]; OD (undosed eye), 6 h): 1057%
Retina/Upper eyelid ratio of DHA ([3]; OD (undosed eye), 24 h): 672%
DHA in cornea ([3]; OS (dosed eye), 0 h (baseline)): BLQ
DHA in upper eyelid ([3]; OS (dosed eye), 0 h (baseline)): BLQ
DHA in vitreous humor ([3]; OS (dosed eye), 0 h (baseline)): BLQ
Retina/Upper eyelid ratio of DHA ([3]; OS (dosed eye), 0.5 h): 29%
Retina/Upper eyelid ratio of DHA ([3]; OS (dosed eye), 3 h): 16%
Retina/Upper eyelid ratio of DHA ([3]; OS (dosed eye), 6 h): 735%
Retina/Upper eyelid ratio of DHA ([3]; OS (dosed eye), 24 h): 292%
concentration at 0.5 h ([3]; cornea of the undosed right eye (OD), topical, OD (undosed eye), 0.5 h, read-out: DHA in cornea): 0 ng/g
concentration at 3 h ([3]; cornea of the undosed right eye (OD), topical, OD (undosed eye), 3 h, read-out: DHA in cornea): 0 ng/g
concentration at 6 h ([3]; cornea of the undosed right eye (OD), topical, OD (undosed eye), 6 h, read-out: DHA in cornea): 0 ng/g
concentration at 24 h ([3]; cornea of the undosed right eye (OD), topical, OD (undosed eye), 24 h, read-out: DHA in cornea): 0 ng/g
concentration at 0 h ([3]; plasma, topical, 0 h (baseline), read-out: DHA in plasma): 2400 ng/mL
concentration at 0.5 h ([3]; plasma, topical, 0.5 h post dose, read-out: DHA in plasma): 2200 ng/mL
concentration at 3 h ([3]; plasma, topical, 3 h post dose, read-out: DHA in plasma): 3100 ng/mL
concentration at 6 h ([3]; plasma, topical, 6 h post dose, read-out: DHA in plasma): 2100 ng/mL
concentration at 24 h ([3]; plasma, topical, 24 h post dose, read-out: DHA in plasma): 1200 ng/mL
Kp ([3]; retina / plasma, baseline (before dosing), read-out: Baseline retina/plasma ratio of DHA): 7
concentration at 0 h ([3]; retina of the dosed left eye (OS), topical, OS (dosed eye), 0 h (baseline), read-out: DHA in retina): 16500 ng/g
Kp ([3]; retina of the undosed eye / plasma, topical, 6775.1 μg/eye, each post dose timepoint, DHA to OS via NIODP, read-out: Retina/plasma ratio of DHA in the undosed eye): ≥ 30
concentration at 0 h ([3]; retina of the undosed right eye (OD), topical, OD (undosed eye), 0 h (baseline), read-out: DHA in retina): 16500 ng/g
concentration at 0.5 h ([3]; retina of the undosed right eye (OD), topical, OD (undosed eye), 0.5 h, read-out: DHA in retina): 70800 ng/g
concentration at 3 h ([3]; retina of the undosed right eye (OD), topical, OD (undosed eye), 3 h, read-out: DHA in retina): 97300 ng/g
concentration at 6 h ([3]; retina of the undosed right eye (OD), topical, OD (undosed eye), 6 h, read-out: DHA in retina): 78200 ng/g
concentration at 24 h ([3]; retina of the undosed right eye (OD), topical, OD (undosed eye), 24 h, read-out: DHA in retina): 35600 ng/g
concentration at 0.5 h ([3]; upper eyelid of the undosed right eye (OD), topical, OD (undosed eye), 0.5 h, read-out: DHA in upper eyelid): 41100 ng/g
concentration at 3 h ([3]; upper eyelid of the undosed right eye (OD), topical, OD (undosed eye), 3 h, read-out: DHA in upper eyelid): 5800 ng/g
concentration at 6 h ([3]; upper eyelid of the undosed right eye (OD), topical, OD (undosed eye), 6 h, read-out: DHA in upper eyelid): 7400 ng/g
concentration at 24 h ([3]; upper eyelid of the undosed right eye (OD), topical, OD (undosed eye), 24 h, read-out: DHA in upper eyelid): 5300 ng/g
concentration at 0.5 h ([3]; vitreous humor of the dosed left eye (OS), topical, OS (dosed eye), 0.5 h, read-out: DHA in vitreous humor): 0 ng/mL
concentration at 3 h ([3]; vitreous humor of the dosed left eye (OS), topical, OS (dosed eye), 3 h, read-out: DHA in vitreous humor): 0 ng/mL
concentration at 6 h ([3]; vitreous humor of the dosed left eye (OS), topical, OS (dosed eye), 6 h, read-out: DHA in vitreous humor): 0 ng/mL
concentration at 24 h ([3]; vitreous humor of the dosed left eye (OS), topical, OS (dosed eye), 24 h, read-out: DHA in vitreous humor): 0 ng/mL
concentration at 0.5 h ([3]; vitreous humor of the undosed right eye (OD), topical, OD (undosed eye), 0.5 h, read-out: DHA in vitreous humor): 0 ng/mL
concentration at 3 h ([3]; vitreous humor of the undosed right eye (OD), topical, OD (undosed eye), 3 h, read-out: DHA in vitreous humor): 0 ng/mL
concentration at 6 h ([3]; vitreous humor of the undosed right eye (OD), topical, OD (undosed eye), 6 h, read-out: DHA in vitreous humor): 0 ng/mL
concentration at 24 h ([3]; vitreous humor of the undosed right eye (OD), topical, OD (undosed eye), 24 h, read-out: DHA in vitreous humor): 0 ng/mL
OD/OS retina ratio of DHA ([3]; 0 h (baseline)): 100%
OD/OS retina ratio of DHA ([3]; 0.5 h): 64%
OD/OS retina ratio of DHA ([3]; 3 h): 146%
OD/OS retina ratio of DHA ([3]; 6 h): 99%
OD/OS retina ratio of DHA ([3]; 24 h): 75%
Baseline endogenous concentration in brain [4]: 20758 ng/g
Baseline endogenous concentration in cerebrospinal fluid [4]: BLQ
Baseline endogenous concentration in eye tissue homogenate including (Retina, optic nerve, ocular muscle) [4]: 2643.5 ng/g
Baseline endogenous concentration in plasma [4]: 122.1 ng/mL
SMILES: CC/C=C\C/C=C\C/C=C\C/C=C\C/C=C\C/C=C\CCC(=O)O [DHA, docosahexaenoic acid]
Endogenous levels of DHA in monkey ocular tissues ([2]; LLOQ=0.5 μg/mL): mostly below the lower limit of quantification (LLOQ=0.5 μg/mL) or negligible
Share of orally administered DHA delivered to the brain or CNS [5]: about 0.025%
